Measured values: a melting point compilation (Tetko et al.; mined from patent text by program, amines drawn as free bases though some values may be those of a salt)

melting point	SMILES
75 to 77 °C	O=C(Nc1ccccc1)c1ccccn1
101 °C	CC(C)C[C@H](NC(=O)OCc1ccccc1)C(=O)NC(Cc1ccc(F)cc1)C(=O)CSCc1ccco1 (some centres undefined)
99 to 100 °C	CCOC(=O)c1cn(Cc2ccccc2)nc1OCc1ccc(OCc2nc(-c3ccccc3)oc2C)cc1
129 to 130 °C	COc1ccc(S(=O)(=O)Nc2ccc(CCCC(=O)O)nc2)cc1
96 to 97 °C	Cc1nn(C)c2c1N=C(C(C)C)N1CC(C)N=C21 (centres undefined)
143 to 144 °C	CC(=O)NC1Cc2ccc([N+](=O)[O-])cc2C1 (centres undefined)
121 to 127 °C	CC(C)(C)OC(=O)c1cnc(NC(=O)[C@H](CC2CCCC2)c2ccc(S(C)(=O)=O)c(Cl)c2)cn1
160 to 162 °C	O=C(O)CCc1cc2cc(Cl)ccc2n1S(=O)(=O)c1ccc(-c2ccccc2)cc1
197 to 200 °C	CNC(=S)N1CCN(c2cnccn2)CC1
100 °C	COc1ccc2c(CC#N)c[nH]c2c1
53 to 55 °C	COC(c1ccccc1)C(C)([N+](=O)[O-])[N+](=O)[O-] (centres undefined)
125 to 126 °C	C[C@@H](COS(C)(=O)=O)NS(=O)(=O)c1ccccc1[N+](=O)[O-]
64 to 66 °C	Cc1ccc2noc(-c3ccccc3)c2c1
67 to 69 °C	CSc1ccc2c(c1)C(O)Cc1ccc(C)cc1O2 (centres undefined)
176 to 178 °C	CCCC(=O)c1c[nH]c2c(F)cccc2c1=O
85 to 90 °C	CCCCCCOc1cccc(C[C@H](NC(=O)c2coc(NS(C)(=O)=O)n2)[C@H](O)CNCc2cccc(CC)c2)c1
174 to 178 °C	COC(=O)c1cc2ccccc2c(-c2ccnc(Cl)c2)c1C(=O)OC
85 to 86 °C	Cc1cccc(Nc2ccccc2C(=O)OCC(=O)N(C)C)c1C
140 to 141 °C	CC[C@H](C)C(OCc1ccccc1)[C@H]1[C@H]([N+](=O)[O-])[C@H](c2ccccc2)N[C@@H]1C(=O)NCCC(=O)O (some centres undefined)
92 to 94 °C	CC(C)n1nc(-c2ccc(OCCCCl)cc2)c2sccc2c1=O
176 to 178 °C	NCCC(O)(c1ccc(-c2ccccc2)cc1)c1ccc(-c2ccccc2)cc1
46 to 48 °C	O=Cc1cccc(-c2ccco2)n1
129 to 130 °C	Oc1cccc(CCc2nc3ccccc3s2)c1
231 to 233 °C	Nc1nc(NCCSSCCNc2n[nH]c(N)n2)n[nH]1
99 to 102 °C	CNC(=O)N(O)C(C)c1ccc(Cl)c(C)c1 (centres undefined)

melting point	SMILES
153 to 154 °C	CCCc1nn(-c2ccc(C(F)(F)F)cn2)cc1COc1ccc(CCC(=O)O)c(OC)c1
165 to 168 °C	CN(C)CCNS(=O)(=O)c1ccc(O)cc1
104 to 105 °C	CCCc1ccccc1OCCCOc1cccc(OC(=CC(=O)O)C(=O)O)c1CC
195 to 196 °C	COCc1noc(-c2ncn3c2c(=O)n(C(C)C)c2ccccc23)n1
215 °C	Cn1c(C(F)(F)F)cc(=O)n(-c2ccc3snc(CS(=O)(=O)CC(=O)O)c3c2)c1=O
> 260 °C	CCCCc1nc2cccnc2n1Cc1ccc2c(Cl)c(C(=O)O)sc2c1
158 to 160 °C	CNC(=S)NCC1CN(c2ccc(N3CCOCC3)c(F)c2)C(=O)O1 (centres undefined)
228 to 229 °C	CC(C)Nn1c(CO)nc2c(N)nc3ccccc3c21
197 to 198 °C	Cn1cc(C(F)(F)F)c(C(=O)O)c1Cl
170 °C	CCSc1ncn(-c2ccc(O)cc2)n1
163 to 165 °C	O=C(O)C1CCCCN1CC=CP(=O)(O)O (centres undefined)
208 to 210 °C	Cn1cc(NC=O)cc1C(=O)O
67 to 70 °C	CNS(=O)(=O)c1ccc(F)cc1
206 to 208 °C	Cc1c(S(C)(=O)=O)c2cccc(Cl)c2n1CC1=NCCN1
97 to 103 °C	O=C(NN=C(c1ccc(Cl)cc1)c1ccc(OC(F)(F)C(Cl)Cl)cc1)OCC(Cl)(Cl)Cl
> 195 °C	C#CC(Cn1cnnn1)n1nnc2cc3c(=O)n(C4CC4)nnc3cc2c1=O (centres undefined)
60 °C	COC(=O)C1=C(N)C(C)SC1 (centres undefined)
266 to 268 °C	Nc1nc(Nc2ccc([N+](=O)[O-])cc2)sc1C(=O)c1ccccc1[N+](=O)[O-]
131 to 132 °C	CC(O)c1occc(=O)c1O (centres undefined)
152 to 153 °C	NC(=O)c1ccc(CCBr)cc1
137 to 139 °C	CN(N)c1nc2ccccc2s1
265 to 268 °C	COc1cc(O)c2c(=O)c3c(oc2c1)oc1cc(O)ccc13
145 to 147 °C	COC1CCCC(C(=O)Nc2ccc(-n3nc(C(F)(F)F)cc3C(F)(F)F)cc2)C1 (centres undefined)
159 to 164 °C	CCCc1c(OCCCCCc2c(O)c(O)cc(Cl)c2Cl)ccc(C(=O)O)c1O
105 °C	CCC(CC)C(=O)OCOC(=O)C1=C(S[C@H]2CC[S@@](=O)C2)S[C@@H]2[C@@H]([C@@H](C)O)C(=O)N12

melting point	SMILES
173 to 175 °C	O=C(Nc1ccccc1)OC1CCN(C(=O)c2ccc(F)cc2)C1 (centres undefined)
65 to 66 °C	COC(=O)c1c(OC)cc(N(C)C)nc1C
179 to 180 °C	COc1ccc(C(=O)O)c(C)c1OC
45 °C	COc1c(NC2CCC3(CC2)OCC(C)(C)CO3)ccnc1C
229 °C	CCc1ccccc1NC=C1C(=O)N(c2cccc(NC(=O)OC)c2)N=C1C
132 to 136 °C	CCOC(=O)Cn1cccc1-c1nc(-c2ccc(OC)cc2)c(-c2ccc(OC)cc2)s1
107 to 108 °C	Cc1cc(SC(C)C)c(NC(=O)CCCCCCCSc2nc3ccccc3s2)c(SC(C)C)n1
117 to 118 °C	CON(C(=O)c1cn(C)nc1C(F)F)C(CF)Cc1c(Cl)cc(Cl)cc1Cl (centres undefined)
250 °C	CCCC1=C(C#N)C(c2cccc(C)c2[N+](=O)[O-])c2c[nH]nc2N1 (centres undefined)
76 to 77 °C	O=[N+]([O-])c1cccc2c1COCO2
114 °C	CNC(=O)N=c1ccc(C)cn1-c1cccc(C(F)(F)F)c1
129 to 130 °C	CCOC(=O)c1cccc(-c2ccc3c(n2)C(Oc2ccc(Cl)cc2Cl)CC3)c1 (centres undefined)
218 to 220 °C	COC(=O)c1c(Cn2cncn2)nc2cc(OC)c(OC)cc2c1-c1ccc(OC)c(OC)c1
170 to 172 °C	Cn1c(C(F)(F)F)cc(=O)n(-c2ccc(Cl)c(C=CC(=O)OCC(F)(F)F)c2)c1=O
187 to 188 °C	O=C1CCN(Cc2cnc(Nc3n[nH]c4ccc(-c5ncccc5Cl)cc34)s2)CC1
132 to 134 °C	CC[C@@]1(O)CC(=O)c2c(OC)ccc(OC)c2C1
133 to 134 °C	COc1ccc(CCOc2c(-c3ccc(S(C)(=O)=O)cc3)cnn(CC(F)(F)F)c2=O)cc1OC
178 to 200 °C	O=C(CC1CCCCC1)Nc1c(Cl)ccc2nc(N3CC[C@H](NS(=O)(=O)C(F)(F)F)C3)ccc12
119 to 120 °C	Cc1cn(-c2cccc([N+](=O)[O-])c2)cn1
139 °C	Cc1cc(SC2=C(O)CC(CCc3ccc(O)cc3)(CCc3ccc(O)cc3)OC2=O)c(C(C)(C)C)cc1OS(=O)(=O)N(C)C
182 to 183 °C	Nc1ccc(NC(=O)CC(=O)c2ccccc2)cc1[N+](=O)[O-]
278 to 280 °C	CCS(=O)(=O)Cc1ccc(Cl)c2nc3n(c12)CCCN3c1ccc(Cl)cc1Cl
206 to 207 °C	COc1cc(Nc2ncc(C#N)c(-c3ccccc3)n2)cc(OC)c1
123 to 125 °C	COc1ccc(N2CCN(c3c(C)c(C)c4c(c3C)C(c3ccccn3)C(C)(C)O4)CC2)cc1 (centres undefined)
200 to 202 °C	c1cncc(-c2ccc3nncn3c2)c1

melting point	SMILES
270 to 280 °C	CN1CCN(c2nc3c(cc2F)c(=O)c(C(=O)O)cn3C2CSC2)CC1
165 °C	CCOC(=O)C1=C(N)NC2=C(C(=O)CCC2)C1c1ccccc1C#N (centres undefined)
230 to 232 °C	Cc1c(C(=O)O)oc2cc(S)ccc12
158 °C	O=C1NCCN1C(=O)N1CCOCC1
121 to 124 °C	CCCOc1ccc(S(=O)(=O)Cl)cc1C(=O)O
218 °C	C#CCOc1ccc(C2c3[nH]c4ccccc4c3CC(C(=O)OC)N2C(=O)CCl)cc1 (centres undefined)
208 to 210 °C	COc1ccc(C)cc1NC(=O)Nc1ccc(N2CCN(C(=O)Nc3ccc(N(C)CCO)cc3C)CC2)cc1
88.5 to 90 °C	CCOc1ccccc1O[C@@H]1CN(Cc2ccccc2)C[C@H]1O (relative stereo)
79 to 81 °C	O=C(Nc1ccc(O)cn1)C(CC1CCCC1)c1ccc(Cl)c(Cl)c1 (centres undefined)
70 to 71 °C	COCCOc1ccc(CCCO)c(Oc2ncc(C(F)(F)F)cc2Cl)c1
134 to 139 °C	CC(C)CC(N=O)C(=O)NC(CC(C)C)C(=O)O (centres undefined)
101 to 102 °C	CCOC(=O)CCCCCOC1OC(COC(C)=O)C(OC(C)=O)C(OC(C)=O)C1NC(C)=O (centres undefined)
32 to 33 °C	C#CC(C)Nc1c(C)cccc1C (centres undefined)
144 to 145 °C	CS(=O)CC(=O)c1cc(C(C)(C)C)c(O)c(C(C)(C)C)c1 (centres undefined)
84 to 86 °C	O=[N+]([O-])c1ccc(F)c(-c2ccccn2)c1F
82 °C	O=C(NC(=S)Nc1ccc(F)cc1)c1ccccc1
167 to 169 °C	COc1ccc(C(=NO)c2ccccc2F)c(O)c1C
103 °C	COc1ccc(C=O)c(OC)c1I
234 to 236 °C	CC(=O)Nc1c(C(=O)c2ccccc2)[nH]c2cc([N+](=O)[O-])ccc12
92 to 94 °C	CC(CC(O)=S)(c1ccc(OCc2ccc3ccccc3n2)cc1)c1ccc(OCc2ccc3ccccc3n2)cc1
230 to 232 °C	N#Cc1cc(C(F)(F)F)[nH]c1-c1ccc(Cl)c(Cl)c1
146 to 147 °C	O=C(NC1CCN(CCCOC(=O)c2ccccc2)CC1)c1ccccc1
92 to 93 °C	CC(=O)N1c2ccccc2SC1C#N (centres undefined)
96 to 97 °C	N#Cc1ccc(Oc2ccc(CC(=O)OCc3ccccc3)cc2)nc1
176 to 178 °C	O=C1N(Cc2ccc(C(F)(F)F)o2)c2cc3c(cc2C12COc1cc4c(cc12)OCCO4)OCCO3 (centres undefined)

SMILES	melting point
CCCC(NS(=O)(=O)c1ccccc1)P(=O)(Oc1ccccc1)Oc1ccccc1 (centres undefined)	173 to 175 °C
CN1CCN(C(=O)OC2c3ccccc3C(=O)N2c2ccc3c(Cl)ccnc3n2)CC1 (centres undefined)	240 °C
BrCc1c(Br)cccc1Br	77 to 78 °C
CC(=O)Nc1ccc(S(=O)(=O)F)cc1	169 to 171 °C
